Experimental findings from PubChem BioAssay (NCI) are described below.

Test systems include A498 renal; ACHN renal; COLO 205 colon; HCC-2998 colon; KM12 colon; NCI-H23 lung; NCI-H460 lung; OVCAR-3 ovarian; SF-539 CNS; UO-31 renal.
Assay in all cases: NCI tumour cell line growth inhibition, 48 h

SMILES strings stand for the structures.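 96-well plates; 48 h exposure; 5 concentrations. Endpoints by linear interpolation between flanking doses. Not reached: highest tested concentration assigned. Here, GI50 denotes the concentration required for 50% inhibition of growth. The concentration for full growth arrest is given as TGI.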

On to `COc1ccc(C(=O)c2cc(OC)c(OC)c(OC)c2)cc1/C=C/C(=O)c1ccc(O)cc1`, for which the GI50 in the assay on A498 renal is 3.14 µM; in the assay on ACHN renal, 5.22 µM; in the assay with COLO 205 colon it was 15.1 µM; with HCC-2998 colon it was 1.66 µM; in the assay on KM12 colon, 2.44 µM; in the assay on NCI-H23 lung it was 2.93 µM. Also, the GI50 in the assay with NCI-H460 lung is 2.56 µM; in the assay with OVCAR-3 ovarian, 3 µM; in the assay on SF-539 CNS, 2.72 µM; in the assay on UO-31 renal it was 3.2 µM. The TGI is 15.1 µM in the assay on A498 renal; 21.5 µM in the assay with ACHN renal; 36.3 µM in the assay with COLO 205 colon; 3.16 µM in the assay on HCC-2998 colon; 7.05 µM in the assay with KM12 colon; 10.2 µM with NCI-H23 lung. In addition, the TGI was 7.23 µM in the assay on NCI-H460 lung, 8.47 µM in the assay with OVCAR-3 ovarian, 7.9 µM in the assay on SF-539 CNS and 16.2 µM in the assay with UO-31 renal.
`OCc1ccc(N(Cc2ccc(F)cc2)C2CCC2)cc1Cl`: the GI50 with A498 renal was 0.0332 µM; in the assay with ACHN renal, 13.2 µM; in the assay on COLO 205 colon, 3.5 µM; with HCC-2998 colon, 5.42 µM; in the assay on KM12 colon, 14.5 µM; in the assay with NCI-H23 lung, 9.41 µM. The GI50 in the assay on NCI-H460 lung is 0.275 µM; with OVCAR-3 ovarian, 0.403 µM; in the assay on SF-539 CNS, 16.7 µM; in the assay with UO-31 renal it was 1.88 µM. The TGI worked out at 0.156 µM in the assay with A498 renal; 26.4 µM in the assay with ACHN renal; 11.5 µM in the assay with COLO 205 colon; 22.7 µM in the assay with HCC-2998 colon; 28.7 µM in the assay with KM12 colon; 25.4 µM in the assay with NCI-H23 lung. In addition, the TGI was 10.2 µM with NCI-H460 lung, 2.05 µM with OVCAR-3 ovarian, 31.3 µM in the assay with SF-539 CNS and 15.2 µM in the assay with UO-31 renal.
As to `O=C(Nc1cccc(NS(=O)(=O)c2ccc(F)cc2)c1)c1ccc(-c2ccccc2)cc1`, the GI50 in the assay on A498 renal is 4.69 µM; with ACHN renal, 3.65 µM; in the assay on COLO 205 colon it was 3.23 µM; in the assay on HCC-2998 colon it was 3.48 µM; with KM12 colon, 3.46 µM; in the assay with NCI-H23 lung, 2.83 µM. For the same molecule, the GI50 was 3.42 µM in the assay with NCI-H460 lung, 2.99 µM in the assay with OVCAR-3 ovarian, 3.42 µM in the assay with SF-539 CNS and 2.56 µM with UO-31 renal. For the same molecule, the TGI in the assay on A498 renal came to 25.9 µM; in the assay on ACHN renal it was 42.7 µM; with COLO 205 colon it was 11.4 µM; in the assay on HCC-2998 colon it was 24.4 µM; with KM12 colon it was 15.6 µM; with NCI-H23 lung, 10.5 µM. Also, the TGI came out at 14.7 µM in the assay with NCI-H460 lung, 15.3 µM with OVCAR-3 ovarian, 12.8 µM with SF-539 CNS and 16.9 µM in the assay on UO-31 renal.
Take `O=C(Oc1cccc(Nc2ncnc3ccccc23)c1)c1ccccc1Cl`: the GI50 was 23.8 µM in the assay with A498 renal; 23.1 µM with ACHN renal; 24 µM in the assay on COLO 205 colon; 20.4 µM in the assay on HCC-2998 colon; 14.4 µM in the assay on KM12 colon; 13 µM with NCI-H23 lung. The GI50 with NCI-H460 lung was 20.3 µM; with OVCAR-3 ovarian, 16.7 µM; in the assay on SF-539 CNS, 30.5 µM; in the assay with UO-31 renal it was 36.4 µM. In addition, the TGI in the assay on A498 renal was 49.4 µM; in the assay on ACHN renal it was 62 µM; in the assay on COLO 205 colon, greater than 100 µM; with HCC-2998 colon it was 39.3 µM; in the assay with KM12 colon, 31.4 µM; with NCI-H23 lung, 31.8 µM. Further, the TGI is 52.7 µM in the assay with NCI-H460 lung, 56.9 µM in the assay with OVCAR-3 ovarian, 88.9 µM in the assay with SF-539 CNS and greater than 100 µM in the assay with UO-31 renal.
Regarding `Cc1ccc2c(/C=C/C(=O)c3cc(CN4CCOCC4)c(O)c4nc(C)ccc34)cc(CN3CCOCC3)c(O)c2n1`, the GI50 is 1.8 µM in the assay with A498 renal; 0.535 µM in the assay with ACHN renal; 1.82 µM in the assay on COLO 205 colon; 1.1 µM in the assay on HCC-2998 colon; 0.558 µM in the assay with KM12 colon; 1.13 µM with NCI-H23 lung. Moreover, the GI50 in the assay on NCI-H460 lung is 0.385 µM; in the assay on OVCAR-3 ovarian, 0.875 µM; in the assay on SF-539 CNS, 0.459 µM; with UO-31 renal, 0.371 µM. Also, the TGI was 3.37 µM in the assay with A498 renal; 2.06 µM in the assay on ACHN renal; 4.49 µM in the assay on COLO 205 colon; 2.76 µM in the assay on HCC-2998 colon; 2.24 µM in the assay on KM12 colon; 4.5 µM with NCI-H23 lung. The TGI was 9.37 µM with NCI-H460 lung, 4.6 µM in the assay on OVCAR-3 ovarian, 2.02 µM in the assay with SF-539 CNS and 1.6 µM with UO-31 renal.
As for `N.N.NCCCCN.O=C([O-])CC(=O)[O-].O=C([O-])CC(=O)[O-].[Pt+4].[Pt+4]`, the GI50 is greater than 100 µM with A498 renal; 26.9 µM in the assay on ACHN renal; greater than 100 µM with COLO 205 colon; 97.3 µM in the assay on HCC-2998 colon; greater than 100 µM in the assay on KM12 colon; 89.1 µM in the assay on NCI-H23 lung. Moreover, the GI50 is 9.62 µM in the assay with NCI-H460 lung, greater than 100 µM with OVCAR-3 ovarian, 76.4 µM in the assay on SF-539 CNS and 59.4 µM in the assay on UO-31 renal. Also, the TGI with A498 renal, in the assay on ACHN renal, in the assay with COLO 205 colon, in the assay on HCC-2998 colon, in the assay with KM12 colon and with NCI-H23 lung was greater than 100 µM each time. Moreover, the TGI in the assay with NCI-H460 lung, in the assay on OVCAR-3 ovarian, in the assay with SF-539 CNS and in the assay with UO-31 renal was greater than 100 µM in each case.
As for `CCNCCNc1cc(-c2ccc(Cl)cc2)c(C#N)c2nc3ccccc3n12`, the GI50 is 2.01 µM in the assay on A498 renal; 1.48 µM in the assay on ACHN renal; 1.46 µM in the assay with COLO 205 colon; 1.84 µM in the assay on HCC-2998 colon; 1.73 µM with KM12 colon; 1.85 µM with NCI-H23 lung. In addition, the GI50 in the assay on NCI-H460 lung was 1.79 µM; in the assay with OVCAR-3 ovarian, 1.45 µM; in the assay with SF-539 CNS, 1.72 µM; in the assay on UO-31 renal, 1.49 µM. For the same molecule, the TGI in the assay with A498 renal turned out to be 3.52 µM; in the assay on ACHN renal, 2.89 µM; in the assay on COLO 205 colon, 3.27 µM; with HCC-2998 colon, 3.4 µM; in the assay with KM12 colon it was 3.24 µM; in the assay with NCI-H23 lung, 3.91 µM. Also, the TGI is 3.37 µM in the assay with NCI-H460 lung, 2.85 µM in the assay with OVCAR-3 ovarian, 3.22 µM in the assay on SF-539 CNS and 2.94 µM with UO-31 renal.
